Assay results as given in patent publication US20240317755A1, “HETEROCYCLIC COMPOUND, AND INTERMEDIATE THEREOF, PREPARATION METHOD THEREFOR AND USE THEREOF” (WUHAN LL SCIENCE AND TECHNOLOGY DEVELOPMENT CO., LTD., priority 2021, published 2024).
Read-outs that look alike come from different tables or passages of the source.

What was measured:
[1] = target: TRPC5 channel (Homo sapiens (Human), UniProt Q9UL62); assay: TRPC5 calcium flux assay (Fluo-4, FLIPR) in TRPC5-HEK 293 cells; assay type: cell-based; conditions: for IC50: 0.3 nM Englerin A
TRPC5 channel, sequence (Q9UL62 whole entry): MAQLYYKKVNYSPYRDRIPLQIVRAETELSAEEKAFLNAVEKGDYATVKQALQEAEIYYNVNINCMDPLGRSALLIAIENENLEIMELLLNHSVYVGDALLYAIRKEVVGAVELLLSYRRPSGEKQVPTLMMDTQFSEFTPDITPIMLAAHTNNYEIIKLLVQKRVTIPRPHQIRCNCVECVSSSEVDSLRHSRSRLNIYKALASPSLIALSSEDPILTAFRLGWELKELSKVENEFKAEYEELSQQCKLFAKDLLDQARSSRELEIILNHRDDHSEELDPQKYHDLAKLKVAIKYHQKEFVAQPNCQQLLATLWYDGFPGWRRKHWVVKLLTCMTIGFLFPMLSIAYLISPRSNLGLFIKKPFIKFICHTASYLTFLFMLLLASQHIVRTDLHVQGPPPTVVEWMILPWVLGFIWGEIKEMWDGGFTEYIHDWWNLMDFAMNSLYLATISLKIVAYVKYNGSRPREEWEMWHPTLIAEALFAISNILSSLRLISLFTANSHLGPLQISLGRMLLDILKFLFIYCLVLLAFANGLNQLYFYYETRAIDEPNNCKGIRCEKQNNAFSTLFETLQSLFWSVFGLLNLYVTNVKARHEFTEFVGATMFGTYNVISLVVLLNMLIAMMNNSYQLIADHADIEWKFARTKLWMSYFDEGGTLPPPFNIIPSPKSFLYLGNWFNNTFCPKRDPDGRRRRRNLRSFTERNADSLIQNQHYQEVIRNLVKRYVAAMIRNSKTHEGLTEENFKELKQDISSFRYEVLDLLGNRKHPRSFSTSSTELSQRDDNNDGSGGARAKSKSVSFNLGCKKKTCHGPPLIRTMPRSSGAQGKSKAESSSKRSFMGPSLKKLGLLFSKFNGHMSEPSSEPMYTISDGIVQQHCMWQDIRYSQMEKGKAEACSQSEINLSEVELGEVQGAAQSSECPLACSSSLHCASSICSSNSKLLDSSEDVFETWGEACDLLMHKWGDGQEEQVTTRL
Protocol: TRPC5 is a type of non-selective cation channel with permeability to calcium ions. […] Fluo-4 AM fluorescence dye was used to indirectly reflect the effect of the compound on TRPC5 channel by detecting intracellular Ca^2+ in TRPC5-HEK 293 cells.
• Revival solution: 100% high glucose DMEM • Selection medium: high glucose DMEM+10% FBS+1% P/S+1% HEPES+Blasticidin (5 μg/mL)+Hygromycine (50 μg/mL) • Induction medium: high glucose DMEM+10% FBS+1% P/S+1% HEPES+Doxycycline (1 μg/mL)
(§1) 14 hours before the real-time fluorescence experiment, cells were washed with PBS and digested with trypsin-EDTA. Cells were diluted to 200,000 cells/mL with induction medium and seeded onto a 96-well black wall bottom transparent plate coated with poly-D-lysine (PDL) (stock solution of 10 mg/mL, final concentration of 10 μg/mL) at 100 μL/well, i.e., 20,000 cells/well.
500 mL of external solution for detecting TRPC5 calcium signals: 4.0908 g of NaCl, 0.1864 g of KCl, 0.111 g of CaCl2, 0.0476 g of MgCl2, 0.9 g of glucose, 1.1915 g of HEPES (2-[4-(2-hydroxyethyl)piperazin-1-yl]ethanesulfonic acid).
Calcium fluorescent dye: an external solution for detecting TRPC5 calcium signals containing Fluo-4 with a final concentration of 4 μM (containing 0.5% BSA)
Positive inhibitor concentration: 100 nM
The dose-effect diagram was used to calculate AUC (area under the curve of the curve formed by the calcium flux signal), and the data and the log of the compound concentration were collected. The IC50 value was calculated using log[Inhibitor] vs. response Variable slope.
TRPC5 is a type of non-selective cation channel with permeability to calcium ions. […] Fluo-4 AM fluorescence dye was used to indirectly reflect the effect of the compound on TRPC5 channel by detecting intracellular […] in TRPC5-HEK 293 cells.
1. Cell culture 1.1 Revival of TRPC5-HEK 293 cells • Revival solution: 100% high glucose DMEM • Selection medium: high glucose DMEM+10% FBS+1% P/S+1% HEPES+Blasticidin (5 μg/mL)+Hygromycine (50 μg/mL) • Induction medium: high glucose DMEM+10% FBS+1% P/S+1% HEPES+Doxycycline (1 μg/mL)
as §1, with “trypsin-EDTA (TE).” for “trypsin-EDTA.”

[2] = Liver microsome half-life assay, mouse; assay type: in vitro ADME; conditions: liver microsomes, 1 mg/mL liver microsomal protein, 37° C., read-out: Liver microsome T½ (min) Mouse
Protocol: (§2) The in vitro metabolic stability of the compounds of the present disclosure was determined using warm incubation method of liver microsomes in various species. A proper amount of test compound was added to the liver microsomal reaction system (1 mg/mL liver microsomal protein, 25 U/mL glucose-6-phosphate dehydrogenase, 1 mM NADP, 6 mM D-glucose 6-phosphate, 5 mM MgCl2), and the reaction was started by warm incubation in a water bath at 37° C., then 100 μL of the reaction mixture at each time point was added to a centrifuge tube containing 400 μL of internal standard working solution precooled at 0° C. (containing a solution of 200 ng/mL dexamethasone, diclofenac, tolbutamide, and labetalol in acetonitrile), then the reaction was terminated, centrifuged at 4° C. and 10,000 g for 10 min, and the supernatant was taken into LC-MS for analysis and detection to obtain in vitro metabolic half-lives of the test compounds in liver microsomes of various species.

[3] = Liver microsome half-life assay, human; assay type: in vitro ADME; conditions: for half-life: human, liver microsomes, 1 mg/mL liver microsomal protein, 37° C., read-out: Liver microsome T½ (min) Human; for metabolic stability in liver microsomes: compared with compounds C001 and C002, statement on Table 12, species not specified
Protocol: as §2

[4] = Liver microsome half-life assay, rat; assay type: in vitro ADME; conditions: liver microsomes, 1 mg/mL liver microsomal protein, 37° C., read-out: Liver microsome T½ (min) Rat
Protocol: as §2

[5] = Liver microsome half-life assay, monkey; assay type: in vitro ADME; conditions: liver microsomes, 1 mg/mL liver microsomal protein, 37° C., read-out: Liver microsome T½ (min) Monkey
Protocol: as §2

[6] = Liver microsome half-life assay, beagle dog; assay type: in vitro ADME; conditions: liver microsomes, 1 mg/mL liver microsomal protein, 37° C., read-out: Liver microsome T½ (min) Beagle dog
Protocol: as §2

[7] = Pharmacokinetic study in mice in vivo (gavage and tail vein injection); conditions: mouse, plasma; for AUC(0-t) / Cmax: dose 1 mg/kg; for bioavailability: 1 mg/kg, p.o. vs i.v.
Description: […] Mouse plasma was collected at a specific time point after administration, and the concentration of the compound in plasma was detected by LC-MS/MS (AB SCIEX Qtrap4500). PK parameters of each compound (WinNonlin V5.2, Pharsight) were statistically analyzed and calculated to reflect the pharmacokinetic properties of the compounds of the present disclosure in mice in vivo.

[8] = Table 11, read-out: TRPC5 inhibitory activity, IC50

Row | Structure (SMILES) | half-life [2] | half-life [3] | half-life [4] | AUC(0-t) ([7]; iv) | Cmax ([7]; iv) | bioavailability ([7]; po) | AUC(0-t) ([7]; po) | Cmax ([7]; po) | IC50 [1, 8] | also measured
1 | O=C(c1ccc(F)cc1C(F)(F)F)c1cnc2n1CCN(c1cnn(COP(=O)(O)O)c(=O)c1Cl)C2 [Compound 1, (5-chloro-4-(3-(4-fluoro-2-(trifluoromethyl)benzoyl)-5,6-dihydroimidazo[1,2-a]pyrazin-7(8H)-yl)-6-oxopyridazin-1(6H)-yl)methyl dihydrogen phosphate] |  |  |  |  |  |  |  |  |  | inhibitory activity against TRPC5 channels [1]: no inhibitory activity; IC50 ([1]; Table 1, read-out: TRPC5 inhibitory activity, IC50): > 10000 nM
2 | O=c1[nH]ncc(N2CCc3c(ncn3Cc3ccccc3C(F)(F)F)C2)c1Cl [Compound C001, reference compound] | 60 min | 54 min | 5 min |  |  |  |  |  |  | half-life [5]: 38 min; half-life [6]: 15 min
3 | O=c1[nH]ncc(N2CCc3c(ncn3Cc3ccc(F)cc3C(F)(F)F)C2)c1Cl [Compound C002, reference compound] | 115 min | 90 min | 34 min |  |  |  |  |  |  | half-life [5]: 15 min; half-life [6]: 102 min
4 | O=c1[nH]ncc(N2CCn3c(Cc4ccccc4C(F)(F)F)cnc3C2)c1Cl [Compound L001, 4-chloro-5-(3-(2-(trifluoromethyl)benzyl)-5,6-dihydroimidazo[1,2-a]pyrazin-7(8H)-yl)pyridazin-3(2H)-one] | 154 min | 173 min | 20 min | 225 ng·h/mL | 225 ng/mL | 80.6% | 84.3 ng·h/mL | 84.3 ng/mL | 10.8 nM | metabolic stability in liver microsomes [3]: significantly improved
5 | O=c1[nH]ncc(N2CCn3c(Cc4ccc(F)cc4C(F)(F)F)cnc3C2)c1Cl [Compound L002, 4-chloro-5-(3-(4-fluoro-2-(trifluoromethyl)benzyl)-5,6-dihydroimidazo[1,2-a]pyrazin-7(8H)-yl)pyridazin-3(2H)-one] | 188 min | 262 min |  | 1450 ng·h/mL | 833 ng/mL | 43.2% | 625 ng·h/mL | 248 ng/mL | 6.52 nM | metabolic stability in liver microsomes [3]: significantly improved
6 | O=c1[nH]ncc(N2CCn3c(Cc4ccc(F)cc4C(F)F)cnc3C2)c1Cl [Compound L007] |  |  |  |  |  |  |  |  | 7.37 nM | 
7 | O=c1[nH]ncc(N2CCn3c(Cc4ccc(F)cc4Cl)cnc3C2)c1Cl [Compound L009] |  |  |  |  |  |  |  |  | 39.4 nM | 
8 | O=c1[nH]ncc(N2CCn3c(Cc4cc(F)ccc4C(F)(F)F)cnc3C2)c1Cl [Compound L013, 4-chloro-5-(3-(5-fluoro-2-(trifluoromethyl)benzyl)-5,6-dihydroimidazo[1,2-a]pyrazin-7(8H)-yl)pyridazin-3(2H)-one] | 131 min | 148 min |  |  |  |  |  |  | 14.6 nM | 
9 | N#Cc1ccc(Cc2cnc3n2CCN(c2cn[nH]c(=O)c2Cl)C3)c(C(F)(F)F)c1 [Compound L014, 4-((7-(5-chloro-6-oxo-1,6-dihydropyridazin-4-yl)-5,6,7,8-tetrahydroimidazo[1,2-a]pyrazin-3-yl)methyl)-3-(trifluoromethyl)benzonitrile] | 167 min | 7590 min |  | 663 ng·h/mL | 762 ng/mL | 161% | 1070 ng·h/mL | 301 ng/mL | 18.2 nM | 
10 | N#Cc1ccc(C(=O)c2cnc3n2CCN(c2cn[nH]c(=O)c2Cl)C3)c(C(F)(F)F)c1 [Compound L019, 4-(7-(5-chloro-6-oxo-1,6-dihydropyridazin-4-yl)-5,6,7,8-tetrahydroimidazo[1,2-a]pyrazine-3-carbonyl)-3-(trifluoromethyl)benzonitrile] |  |  |  |  |  |  |  |  | 24 nM | 
